Residues, ends and D or L forms follow the SMILES beside them.
Tests used:
S. aureus (NCTC 10788) = assay: Antimicrobial susceptibility assay (MIC/MBC); format: cell-based, Staphylococcus aureus; conditions: for MIC: MHB, 37 °C, 20 h
Protocol: (§1) Six bacteria were tested in this experiment to detect the antimicrobial effects of crabrolin and its derivatives, including S. aureus (NCTC 10788), MRSA (NCTC 12493), E. coli (ATCC 8739), K. pneumoniae (ATCC 43816), E. faecium (NTCC-12697), and P. aeruginosa (ATCC 9027). The tested bacteria were cultured in Mueller Hinton broth medium (MHB) with norfloxacin (20 mg/L) as a positive control. All bacteria were incubated at 37 °C overnight and diluted to 5 × 10^5 CFU/mL before treating with the peptides. Stock solutions of 51,200 µM peptides were prepared in phosphate-buffered saline (PBS) and further diluted by a factor of two to 100 µM. Next, 1 µL of each peptide solution was mixed with 99 µL of bacterial subculture in a 96-well plate, and the plate was incubated at 37 °C for 20 h. After culturing, the absorbance of each well in the 96-well plate was analyzed at 550 nm using a Synergy HT plate reader (BioliseBioTek, Winooski, VT, USA). […] Starting with the MIC value, 10 µL of the solution from each well was dripped onto Mueller Hinton agar (MHA) plates. The plates were cultured at 37 °C for 20 h. After culturing, the lowest concentration with no colony growth was regarded as the MBC.

E. coli (ATCC 8739) = assay: Antimicrobial susceptibility assay (MIC/MBC); format: cell-based, Escherichia coli; conditions: for MIC: MHB, 37 °C, 20 h
Protocol: as §1

MRSA (NCTC 12493) = assay: Antimicrobial susceptibility assay (MIC/MBC); format: cell-based, methicillin-resistant Staphylococcus aureus; conditions: for MIC: MHB, 37 °C, 20 h
Protocol: as §1

[1] = system: K. pneumoniae (ATCC 43816); assay: Antimicrobial susceptibility assay (MIC/MBC); format: cell-based, Klebsiella pneumoniae; conditions: for MIC: MHB, 37 °C, 20 h
Protocol: as §1

E. faecium (NTCC 12697) = assay: Antimicrobial susceptibility assay (MIC/MBC); format: cell-based, Enterococcus faecium; conditions: for MIC: MHB, 37 °C, 20 h
Protocol: as §1

[2] = system: P. aeruginosa (ATCC 9027); assay: Antimicrobial susceptibility assay (MIC/MBC); format: cell-based, Pseudomonas aeruginosa; conditions: for MIC: MHB, 37 °C, 20 h
Protocol: as §1

[3] = system: MRSA (NCTC 12493) biofilm; format: cell-based, methicillin-resistant Staphylococcus aureus; conditions: for MBIC: biofilm inhibitory rate more than 90%; for MBEC: eradication rate greater than 99.9%
Protocol: (§2) To measure the antibiofilm activity of crabrolin and its derivatives, four drug-resistant biofilm-forming strains, MRSA (NCTC 12493), K. pneumoniae (ATCC 43816), E. faecium (NTCC-12697), and P. aeruginosa (ATCC 9027), were used in this assay. Tryptic soy broth (TSB) (for the Gram-positive bacteria) and Luria–Bertani broth (LB) (for the Gram-negative bacteria) were used to culture the bacteria.
(§3) The mass of the biofilm in this assay was detected by the crystal violet staining method. First, 100 μL of 5 × 10^5 CFU/mL bacteria was incubated with 1 μL of different peptide solutions (ranging from 51200 μM to 100 μM) for 24 h at 37 °C with 200 rpm shaking. After the biofilm formation, 100 μL of PBS was used to rinse the biofilm twice. Next, 100 µL of methanol was added to fix the biofilm, and the biofilm was then dried. Thereafter, 100 μL of 0.1% crystal violet was added and left to stain for 15 min, and then the excess crystal violet was further rinsed by PBS. After the plate had air-dried, 30% glacial acetic acid was added to each well of the plate, and the plate was shaken for 15 min before the optical density (OD) value was measured at 595 nm using a Synergy HT plate reader. The MBIC value refers to the minimum concentration at which the biofilm inhibitory rate was more than 90%.
(§4) Different from measuring the MBIC value, to determine the MBEC value, 100 μL of the bacteria was first added to 96-well plates. After the biofilm was formed, the biofilm was rinsed with PBS twice to remove the planktonic cells, and then different concentrations of the drugs were added to the biofilm (the same as the MBIC assay). The mixture was incubated at 37 °C with shaking at 200 rpm. After 24 h of incubation, the mass of the biofilm was measured in the same way as the MBIC value, and the minimum concentration at which the eradication rate was greater than 99.9% was considered to be the MBEC value.

[4] = system: K. pneumoniae (ATCC 43816) biofilm; format: cell-based, Klebsiella pneumoniae; conditions: for MBIC: biofilm inhibitory rate more than 90%; for MBEC: eradication rate greater than 99.9%
Protocol: as §2, §3, §4

[5] = system: E. faecium (NTCC12697) biofilm; format: cell-based, Enterococcus faecium; conditions: for MBIC: biofilm inhibitory rate more than 90%; for MBEC: eradication rate greater than 99.9%
Protocol: as §2, §3, §4

[6] = system: P. aeruginosa (ATCC 9027) biofilm; format: cell-based, Pseudomonas aeruginosa; conditions: for MBIC: biofilm inhibitory rate more than 90%; for MBEC: eradication rate greater than 99.9%
Protocol: as §2, §3, §4

[7] = system: human breast cancer cell line MCF-7; assay: Anti-proliferative assay (MTT); format: cell-based; conditions: MCF-7, MTT, 24 h
Protocol: (§5) The human non-small-cell lung cancer line, H838, the human prostate carcinoma cell line, PC-3, the human glioblastoma astrocytoma, U251MG, the human breast cancer cell line, MCF-7, the human colorectal carcinoma cell line, HCT116, and the human keratinocyte cell line, HaCaT, were used to detect the anti-proliferative effects of the crabrolin and its derivatives in vitro. A total of 8000 cells were seeded in each well of a 96-well plate. After the cells had adhered to the wall, the cells were starved for 4 h. After the starvation, the cells were incubated with different concentrations of the drugs, ranging from 100 µM to 1 nM, for 24 h, with 0.1% Triton X-100 used as a positive control. Next, 10 µL of MTT (3-(4,5-dimethylthiazol-2-yl)-2,5-diphenyltetrazolium bromide) solution (5 mg/mL) was added to each well of the 96-well plate. After 2 h of incubation, 100 μL of DMSO-superseded medium was added to each well to dissolve the formazan crystals. Finally, the absorbance was detected using a Synergy HT plate reader at 570 nm.

[8] = system: human colorectal carcinoma cell line HCT-116; assay: Anti-proliferative assay (MTT); format: cell-based; conditions: HCT-116, MTT, 24 h
Protocol: as §5

[9] = system: human glioblastoma astrocytoma U251MG; assay: Anti-proliferative assay (MTT); format: cell-based; conditions: 24 h
Protocol: as §5

[10] = system: human keratinocyte cell line HaCaT; assay: Anti-proliferative assay (MTT); format: cell-based; conditions: HaCaT (normal keratinocytes), 24 h
Protocol: as §5

[11] = system: human non-small-cell lung cancer line H838; assay: Anti-proliferative assay (MTT); format: cell-based; conditions: 24 h
Protocol: as §5

[12] = system: human prostate carcinoma cell line PC-3; assay: Anti-proliferative assay (MTT); format: cell-based; conditions: PC3, MTT, 24 h
Protocol: as §5

Hemolysis assay = format: cell-based, horse; conditions: horse, erythrocytes (2% suspension); at the peptide's maximum MIC; relative to Triton X-100; read-out: Hemolysis under the Maximum MIC
Protocol: (§6) According to the procedures described in detail in a previous study, the debris and impurities of the erythrocytes were washed with PBS in advance to yield 2% of the erythrocyte suspension, and the drug concentration was diluted from 1024 µM to 2 µM with PBS [53]. The same amounts of the drug and the erythrocyte suspension were mixed and cultured at 37 °C for 2 h; 0.1% Triton X-100 (Sigma-Aldrich, St. Louis, MO, USA) was prepared as a positive control, and PBS was prepared as a negative control. After the incubation, the supernatant was transferred to a 96-well plate and then detected using a Synergy HT plate reader at 570 nm.

horse erythrocytes = assay: Hemolysis assay; format: cell-based; conditions: for HC10 (10% hemolytic concentration): erythrocytes, 37 °C, 2 h
Protocol: as §6

| Structure (SMILES) | MBC (S. aureus (NCTC 10788)) | MIC (S. aureus (NCTC 10788)) | MBC (E. coli (ATCC 8739)) | MIC (E. coli (ATCC 8739)) | MBC (MRSA (NCTC 12493)) | MIC (MRSA (NCTC 12493)) | MBC [1] | MIC [1] | MBC (E. faecium (NTCC 12697)) | MIC (E. faecium (NTCC 12697)) | MBC [2] | MIC [2] | MBIC [3] | MBEC [3] | MBIC [4] | MBEC [4] | MBIC [5] | MBEC [5] | MBIC [6] | MBEC [6] | other results |
| --- | --- | --- | --- | --- | --- | --- | --- | --- | --- | --- | --- | --- | --- | --- | --- | --- | --- | --- | --- | --- | --- |
| CC[C@H](C)[C@H](NC(=O)[C@H](CCCNC(=N)N)NC(=O)[C@@H]1CCCN1C(=O)[C@H](CC(C)C)NC(=O)[C@@H](N)CCCNC(=N)N)C(=O)N[C@@H](CC(C)C)C(=O)N[C@@H](CCCNC(=N)N)C(=O)N[C@@H](CCCCN)C(=O)N[C@H](C(=O)N[C@H](C(=O)N[C@@H](CCCNC(=N)N)C(=O)N[C@@H](C)C(=O)N[C@@H](CC(C)C)C(N)=O)C(C)C)[C@@H](C)CC [Crabrolin-FR, RLPRILRKIVRAL-NH2] (H-RLPRILRKIVRAL-NH2) | 2 µM | 2 µM | 4 µM | 2 µM | 4 µM | 4 µM | 16 µM | 8 µM | 16 µM | 8 µM | 16 µM | 4 µM | 8 µM | 256 µM | 8 µM | 512 µM | 32 µM | > 512 µM | 8 µM | > 512 µM | IC50 [7]: 33.9 µM; IC50 [8]: 30.3 µM; IC50 [9]: 62.2 µM; IC50 [10]: 30.4 µM; IC50 [11]: 31.5 µM; IC50 [12]: 15.9 µM; hemolysis at 2 h (Hemolysis assay): 5.67%; HC10 (10% hemolytic concentration) (horse erythrocytes): 18.082 µM |
| CC[C@H](C)[C@H](NC(=O)[C@H](CCCNC(=N)N)NC(=O)[C@H](CCCNC(=N)N)NC(=O)[C@H](CC(C)C)NC(=O)[C@@H](N)CCCNC(=N)N)C(=O)N[C@@H](CC(C)C)C(=O)N[C@@H](CCCNC(=N)N)C(=O)N[C@@H](CCCCN)C(=O)N[C@H](C(=O)N[C@H](C(=O)N[C@@H](CCCNC(=N)N)C(=O)N[C@@H](CCCNC(=N)N)C(=O)N[C@@H](CC(C)C)C(N)=O)C(C)C)[C@@H](C)CC [Crabrolin-PR, RLRRILRKIVRRL-NH2] (H-RLRRILRKIVRRL-NH2) | 4 µM | 2 µM | 8 µM | 2 µM | 8 µM | 4 µM | 16 µM | 8 µM | 16 µM | 8 µM | 16 µM | 4 µM | 8 µM | 512 µM | 8 µM | > 512 µM | 32 µM | > 512 µM | 8 µM | > 512 µM | IC50 [7]: 12.3 µM; IC50 [8]: 16.3 µM; IC50 [9]: 17.7 µM; IC50 [10]: 29.5 µM; IC50 [11]: 32.3 µM; IC50 [12]: 22.4 µM; hemolysis at 2 h (Hemolysis assay): 3.09%; HC10 (10% hemolytic concentration) (horse erythrocytes): 5019 µM; Hemolytic activity at the measured maximum concentration (horse erythrocytes; maximum concentration (range 1 to 512 μM)): less than 1% |

Reference: PMC10572522, “A Designed Analog of an Antimicrobial Peptide, Crabrolin, Exhibits Enhanced Anti-Proliferative and In Vivo Antimicrobial Activity” (International Journal of Molecular Sciences, 2023)
